Data published in US5126341A, “Anti-inflammatory 1,8-naphthyridin-2-one derivatives” (Kyowa Hakko Kogyo Co., Ltd., priority 1990, dated 1992).
Like-named read-outs stand apart in the source and are kept apart here.

Tests used:
[1] = tested on: zymosan-induced paw edema; assay: Effect on zymosan-induced paw edema; format: in vivo, male Wistar rats; conditions: rat, 100 mg/kg p.o., 1 hour before 1% zymosan; paw volume 4 hours after injection
Procedure: b) Effect on zymosan-induced paw edema
(§1) The experiment was carried out in the same manner as in the carrageenin-induced paw edema test except that 1% zymosan (Zymosan A®; Sigma Chemical Co.) was used in place of 1% carrageenin and the right hind paw volume was measured 4 hours after the injection of the edema-inducing substance instead of 3 hours. The swelling rate and the suppression rate were calculated by equation 1 and equation 2, respectively.

[2] = tested on: Type III allergic reaction-induced pleurisy; assay: Effect on Type III allergic reaction-induced pleurisy; format: in vivo, male Wistar rats; conditions: po, 4.5 h, rat, 100 mg/kg p.o., four and a half hours after induction of pleurisy
Procedure: d) Effect on Type III allergic reaction-induced pleurisy
IgG was purified from rabbit anti-OA serum prepared in advance by the method of Koda et al. [Folia Pharmacol., Japon 66, 237, (1970)] in the following manner.
A saturated solution of ammonium sulfate (half volume of the serum) was added to the anti-OA serum, and the mixture was left for one hour at 4° C. The precipitate was taken by centrifugation (3,000 rpm, 30 min, 4° C.) and dissolved in phosphate buffered saline of Dulbecco. Then, ammonium sulfate fractionation was carried out three times in the same manner as above, whereby a purified IgG fraction was obtained.
Male Wistar rats weighing 225-250 g were pre-bred for several days and fasted overnight prior to the experiment The test compound (100 mg/kg) was orally administered to the animals, and after 30 minutes, IgG of rabbit anti-OA (0.2 ml, 5 mg protein/ml) was injected into the pleural cavity of the animals under anesthesia with ether. Thirty minutes after the injection of IgG, OA (albumin egg grade III; Sigma Chemical Co.) was intravenously injected into the animals as an inducer of pleurisy. After two hours, Evans Blue (25 mg/kg) was intravenously injected, and four and a half hours after the induction of pleurisy, the animals were killed by bleeding.
Then, an exudate in the pleural cavity was obtained, and the volume of the exudate was measured. The pleural cavity was rinsed with 5 ml of physiological saline and the rinsings were added to the exudate. The number of infiltrated cells in the mixture was counted and the volume of the dye in the mixture was determined by the absorption at 625 nm [Agent Actions., 25, 326 (1988)]. The suppression rates for the volume of the exudate, the number of infiltrated cells and the volume of the dye in the pleural cavity were calculated by the following equation 3. [formula]
S.V: the value obtained with the group administered with the test compound and in which pleurisy is induced
N.V: the value obtained with the group in which pleurisy is not induced
P.V: the value obtained with the group administered with no test compound and in which pleurisy is induced

male dd-mice = conditions: mouse, in vivo, 10080 min; for Acute toxicity (MLD, Minimum Lethal Dose) i.p.: ip; for Acute toxicity (MLD, Minimum Lethal Dose) p.o.: po
Procedure: The test compounds were orally or intraperitoneally administered to male dd-mice weighing 20 to 25 g. MLD (Minimum Lethal Dose) was determined by observing the mortality for seven days after the administration.

[3] = tested on: carrageenin-induced paw edema; assay: Effect on carrageenin-induced paw edema; format: in vivo, male Wistar rats; conditions: po; rat, 100 mg/kg p.o., 1 hour before 1% carrageenin; paw volume 3 hours after injection; read-out: Suppression rate for paw swelling, (a) carrageenin-induced edema
Procedure: a) Effect on carrageenin-induced paw edema
Male Wistar rats weighing 150 to 160 g (n=3-5) were used in the experiment. After the right hind paw volume was measured with the plethysmograph (TK-101; Unicom Co., Ltd.), the test compound (100 mg/kg) was orally administered. After one hour, 0.1 ml of 1 % carrageenin (λ-carrageenin; PICNIN-A®, Zushi Kagaku Co., Ltd.) was subcutaneously injected into the right hind paw footpad. Three hours after the injection of carrageenin, the right hind paw volume was measured and the swelling rate was determined by the following equation 1. [formula]
Vt: the right hind paw volume measured 3 hours after the injection of carrageenin
Vo: the right hind paw volume measured prior to the injection of carrageenin
The suppression rate was calculated by the following equation 2. [formula]
Swt: the swelling rate of the group administered with the test compound
Swc: the swelling rate of the control group administered with no test compound

[4] = tested on: arachidonic acid-induced paw edema; assay: Arachidonic acid-induced paw edema; format: in vivo, male Wistar rats; conditions: rat, 100 mg/kg p.o., 1 hour before 0.5% arachidonic acid; paw volume one hour after injection
Procedure: c) Arachidonic acid-induced paw edema
as §1, with “0.5% arachidonic acid” for “1% zymosan (Zymosan A®; Sigma Chemical Co.)”, “one hour” for “4 hours”

[5] = Evans Blue 25 mg/kg i.v., absorption at 625 nm, read-out: Suppression rate, volume of dye in the exudate
[6] = read-out: Suppression rate, volume of exudate
[7] = read-out: Suppression rate, number of infiltrated cells in the exudate

Compound | Suppression rate for paw swelling, (b) zymosan-induced edema [1] [%] | inhibition in vivo at 100 mg/kg [2, 5] [%] | inhibition in vivo at 100 mg/kg [2, 6] [%] | Acute toxicity (MLD, Minimum Lethal Dose) i.p. (male dd-mice) [mg/kg] | Acute toxicity (MLD, Minimum Lethal Dose) p.o. (male dd-mice) [mg/kg] | inhibition in vivo at 100 mg/kg [3] [%] | inhibition in vivo at 100 mg/kg [2, 7] [%] | Suppression rate for paw swelling, (c) arachidonic acid-induced edema [4] [%]
CCCCNC(=O)c1c(O)c2cccnc2n(-c2ccccc2)c1=O [Compound 1, N-(n-Butyl)-4-hydroxy-2-oxo-1-phenyl-1H-1,8-naphthyridine-3-carboxamide] | 20.5 |  |  |  |  |  |  | 
CNC(=O)c1c(O)c2cccnc2n(-c2ccccc2)c1=O [Compound 2, 4-Hydroxy-N-methyl-2-oxo-1-phenyl-1H-1,8-naphthyridine-3-carboxamide] |  | 28.3 | 27.2 |  |  |  |  | 
CN(C)NC(=O)c1c(O)c2cccnc2n(-c2ccccc2)c1=O [Compound 6, N-Dimethylamino-4-hydroxy-2-oxo-1-phenyl-1H-1,8-naphthyridine-3-carboxamide] | 27.3 |  |  | > 100 | > 300 | 31.7 |  | 
CN(C)CCNC(=O)c1c(O)c2cccnc2n(-c2ccccc2)c1=O [Compound 7, N-(2-Dimethylaminoethyl)-4-hydroxy-2-oxo-1-phenyl-1H-1,8-naphthyridine-3-carboxamide] |  |  |  | > 100 | > 300 | 23.2 |  | 
O=C(Nc1cccc(Cl)c1)c1c(O)c2cccnc2n(-c2ccccc2)c1=O [Compound 8, N-(3-Chlorophenyl)-4-hydroxy-2-oxo-1-phenyl-1H-1,8-naphthyridine-3-carboxamide] |  |  |  |  |  |  | 21.7 | 
Cc1cccc(NC(=O)c2c(O)c3cccnc3n(-c3ccccc3)c2=O)c1 [Compound 9, 4-Hydroxy-N-(3-methylphenyl)-2-oxo-1-phenyl-1H-1,8-naphthyridine-3-carboxamide] |  |  | 27.3 | > 100 | > 300 | 25.2 | 28.5 | 
O=C(Nc1cccc([N+](=O)[O-])c1)c1c(O)c2cccnc2n(-c2ccccc2)c1=O [Compound 11, 4-Hydroxy-N-(3-nitrophenyl)-2-oxo-1-phenyl-1H-1,8-naphthyridine-3-carboxamide] |  | 37.2 | 22.1 | > 100 | > 300 |  |  | 
O=C(Nc1nccs1)c1c(O)c2cccnc2n(-c2ccccc2)c1=O [Compound 12, 4-Hydroxy-2-oxo-1-phenyl-N-(2-thiazolyl)-1H-1,8-naphthyridine-3-carboxamide] |  | 24 |  |  |  |  |  | 
O=C(Nc1nc2ccccc2s1)c1c(O)c2cccnc2n(-c2ccccc2)c1=O [Compound 13, N-(2-Benzothiazolyl)-4-hydroxy-2-oxo-1-phenyl-1H-1,8-naphthyridine-3-carboxamide] |  | 25.8 | 28.9 |  |  |  |  | 
COc1ccc(NC(=O)c2c(O)c3cccnc3n(-c3ccccc3)c2=O)cc1 [Compound 16, 4-Hydroxy-N-(4-methoxyphenyl)-2-oxo-1-phenyl-1H-1,8-naphthyridine-3-carboxamide] |  |  |  |  |  |  | 25.4 | 
Cc1ccc(NC(=O)c2c(O)c3cccnc3n(-c3ccccc3)c2=O)cc1 [Compound 17, 4-Hydroxy-N-(4-methylphenyl)-2-oxo-1-phenyl-1H-1,8-naphthyridine-3-carboxamide] |  |  | 22.4 |  |  |  | 21.5 | 
COc1cccc(NC(=O)c2c(O)c3cccnc3n(-c3ccccc3)c2=O)c1 [Compound 18, 4-Hydroxy-N-(3-methoxyphenyl)-2-oxo-1-phenyl-1H-1,8-naphthyridine-3-carboxamide] |  |  | 26.9 |  |  |  | 22.1 | 
COc1ccccc1NC(=O)c1c(O)c2cccnc2n(-c2ccccc2)c1=O [Compound 19, 4-Hydroxy-N-(2-methoxyphenyl)-2-oxo-1-phenyl-1H-1,8-naphthyridine-3-carboxamide] |  |  |  | > 100 | > 300 | 34.2 | 26.8 | 
O=C(NC1CCN(Cc2ccccc2)CC1)c1c(O)c2cccnc2n(-c2ccccc2)c1=O [Compound 21, N-(1-Benzylpiperidin-4-yl)-4-hydroxy-2-oxo-1-phenyl-1H-1,8-naphthyridine-3-carboxamide] |  | 50.2 | 32.4 |  |  |  | 22.1 | 
O=C(NC1=NCCS1)c1c(O)c2cccnc2n(-c2ccccc2)c1=O [Compound 22, 4-Hydroxy-2-oxo-1-phenyl-N-(thiazolin-2-yl)-1H-1,8-naphthyridine-3-carboxamide] |  | 51 | 89.2 | > 100 | > 300 |  | 34.6 | 33.4
O=C(Nc1cnccn1)c1c(O)c2cccnc2n(-c2ccccc2)c1=O [Compound 23, 4-Hydroxy-2-oxo-1-phenyl-N-(pyrazin-2-yl)-1H-1,8-naphthyridine-3-carboxamide] | 22.2 | 43.2 | 24 | > 100 | > 300 | 22.7 | 26.7 | 
CCc1nnc(NC(=O)c2c(O)c3cccnc3n(-c3ccccc3)c2=O)s1 [Compound 24, 4-Hydroxy-2-oxo-1-phenyl-N-(5-ethyl-1,3,4-thiadiazol-2-yl)-1H-1,8-naphthyridine-3-carboxamide] |  | 32.1 | 29.7 |  |  |  |  | 
O=C(NN1CCOCC1)c1c(O)c2cccnc2n(-c2ccccc2)c1=O [Compound 27, 4-Hydroxy-N-morpholino-2-oxo-1-phenyl-1H-1,8-naphthyridine-3-carboxamide] |  | 23.6 |  |  |  |  |  | 
O=C(NCc1ccncc1)c1c(O)c2cccnc2n(-c2ccccc2)c1=O [Compound 28, 4-Hydroxy-2-oxo-1-phenyl-N-(4-pyridylmethyl)-1H-1,8-naphthyridine-3-carboxamide] |  |  |  | > 100 | > 300 | 27.3 |  | 41.6
O=C(NCc1cccnc1)c1c(O)c2cccnc2n(-c2ccccc2)c1=O [Compound 29, 4-Hydroxy-2-oxo-1-phenyl-N-(3-pyridylmethyl)-1H-1,8-naphthyridine-3-carboxamide] |  |  |  | > 100 | > 300 |  |  | 33.3
